Measured values reported in the supplement of paper PMC11616607.

Columns and labels:
Assay in all cases: drug sensitivity score (DSS) from 5-point dose-response viability curve (DSS (area-under-curve based score)); higher = more sensitive (stronger growth inhibition or killing); extreme values may be limits of the assay
Details in all cases: exposure time: 72 h; concentration range: 5 concentrations over 10,000-fold range
[1] = tested on: CAOV3
In short: (§1)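 Each cell line and drug received a drug sensitivity score from Breeze software, where higher means more sensitive. Zero stands for no response. Scores came from CellTiter-Glo viability readings of ovarian cancer and normal ovarian cells, 1,500 per well in 384-well plates, after 3 days at 37°C, 5% CO2 with drugs at five concentrations over a 10,000-fold range.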

[2] = tested on: COV318
In short: as §1

[3] = tested on: COV362
In short: as §1

[4] = tested on: HOSE1C
In short: as §1

[5] = tested on: HOSE2C
In short: as §1

[6] = tested on: JHOS2
In short: as §1

[7] = tested on: Kuramochi
In short: as §1

[8] = tested on: OV90
In short: as §1

[9] = tested on: OVCAR4
In short: as §1

[10] = tested on: OVCAR5
In short: as §1

[11] = tested on: OVCAR8
In short: as §1

[12] = tested on: Ovsaho
In short: as §1

COc1cc2nccc(Oc3ccc(NC(=O)C4(C(=O)Nc5ccc(F)cc5)CC4)cc3)c2cc1OC [Cabozantinib]
drug sensitivity score [1]: 0.4
drug sensitivity score [2]: 2.2
drug sensitivity score [3]: 0.2
drug sensitivity score [4]: 0
drug sensitivity score [5]: 0.6
drug sensitivity score [6]: 1
drug sensitivity score [7]: 3.1
drug sensitivity score [8]: 4.5
drug sensitivity score [9]: 0
drug sensitivity score [10]: 1.5
drug sensitivity score [11]: 0
drug sensitivity score [12]: 0

C=CC(=O)Nc1cc2c(Nc3ccc(F)c(Cl)c3)ncnc2cc1OCCCN1CCOCC1 [Canertinib]
drug sensitivity score [1]: 13.2
drug sensitivity score [2]: 4.3
drug sensitivity score [3]: 5.9
drug sensitivity score [4]: 8.4
drug sensitivity score [5]: 8.2
drug sensitivity score [6]: 7.5
drug sensitivity score [7]: 8
drug sensitivity score [8]: 7.3
drug sensitivity score [9]: 7.7
drug sensitivity score [10]: 8
drug sensitivity score [11]: 8.4
drug sensitivity score [12]: 8.3

CCCCCOC(=O)Nc1nc(=O)n([C@@H]2O[C@H](C)[C@@H](O)[C@H]2O)cc1F [Capecitabine]
drug sensitivity score [1]: 0.2
drug sensitivity score [2]: 0
drug sensitivity score [3]: 0
drug sensitivity score [4]: 0.3
drug sensitivity score [5]: 0
drug sensitivity score [6]: 0
drug sensitivity score [7]: 0
drug sensitivity score [8]: 0
drug sensitivity score [9]: 0
drug sensitivity score [10]: 0.3
drug sensitivity score [11]: 0
drug sensitivity score [12]: 0

CNC(=O)c1ccc(-c2cnc3ncc(Cc4ccc5ncccc5c4)n3n2)cc1F [Capmatinib]
drug sensitivity score [1]: 0
drug sensitivity score [2]: 0
drug sensitivity score [3]: 0
drug sensitivity score [4]: 0
drug sensitivity score [5]: 0
drug sensitivity score [6]: 0
drug sensitivity score [7]: 0.1
drug sensitivity score [8]: 0
drug sensitivity score [9]: 0
drug sensitivity score [10]: 0
drug sensitivity score [11]: 0
drug sensitivity score [12]: 0

O=C(O)C1(C(=O)O)CCC1.[NH2-].[NH2-].[Pt+2] [Carboplatin]
drug sensitivity score [1]: 6.1
drug sensitivity score [2]: 5.5
drug sensitivity score [3]: 0
drug sensitivity score [4]: 7.8
drug sensitivity score [5]: 5
drug sensitivity score [6]: 3.1
drug sensitivity score [7]: 4.9
drug sensitivity score [8]: 3.6
drug sensitivity score [9]: 5.6
drug sensitivity score [10]: 4.7
drug sensitivity score [11]: 1.9
drug sensitivity score [12]: 5.5

CC(C)C[C@H](NC(=O)[C@H](CCc1ccccc1)NC(=O)CN1CCOCC1)C(=O)N[C@@H](Cc1ccccc1)C(=O)N[C@@H](CC(C)C)C(=O)[C@@]1(C)CO1 [Carfilzomib]
drug sensitivity score [1]: 24.6
drug sensitivity score [2]: 26.5
drug sensitivity score [3]: 20.2
drug sensitivity score [4]: 27.4
drug sensitivity score [5]: 28.4
drug sensitivity score [6]: 25.5
drug sensitivity score [7]: 12.4
drug sensitivity score [8]: 27.6
drug sensitivity score [9]: 23.4
drug sensitivity score [10]: 24
drug sensitivity score [11]: 21.5
drug sensitivity score [12]: 28.4

COc1cc2c(Oc3ccc4[nH]c(C)cc4c3F)ncnc2cc1OCCCN1CCCC1 [Cediranib]
drug sensitivity score [1]: 0
drug sensitivity score [2]: 0.2
drug sensitivity score [3]: 0
drug sensitivity score [4]: 0
drug sensitivity score [5]: 0
drug sensitivity score [6]: 0
drug sensitivity score [7]: 0
drug sensitivity score [8]: 0
drug sensitivity score [9]: 0.5
drug sensitivity score [10]: 0
drug sensitivity score [11]: 0
drug sensitivity score [12]: 0.7

Cc1ccc(-c2cc(C(F)(F)F)nn2-c2ccc(S(N)(=O)=O)cc2)cc1 [Celecoxib]
drug sensitivity score [1]: 0
drug sensitivity score [2]: 0
drug sensitivity score [3]: 0
drug sensitivity score [4]: 0
drug sensitivity score [5]: 0
drug sensitivity score [6]: 0
drug sensitivity score [7]: 0
drug sensitivity score [8]: 0
drug sensitivity score [9]: 0
drug sensitivity score [10]: 0
drug sensitivity score [11]: 0
drug sensitivity score [12]: 0

CCS(=O)(=O)N1CCN(c2ccc(Nc3ncc(C(N)=O)c(NC4CC4)n3)cc2)CC1 [Cerdulatinib]
drug sensitivity score [1]: 0.2
drug sensitivity score [2]: 0
drug sensitivity score [3]: 2.7
drug sensitivity score [4]: 0
drug sensitivity score [5]: 0.8
drug sensitivity score [6]: 3.5
drug sensitivity score [7]: 0
drug sensitivity score [8]: 0.6
drug sensitivity score [9]: 0.3
drug sensitivity score [10]: 0
drug sensitivity score [11]: 0
drug sensitivity score [12]: 0

Cc1cc(Nc2ncc(Cl)c(Nc3ccccc3S(=O)(=O)C(C)C)n2)c(OC(C)C)cc1C1CCNCC1 [Ceritinib]
drug sensitivity score [1]: 2.7
drug sensitivity score [2]: 0.8
drug sensitivity score [3]: 0
drug sensitivity score [4]: 0.7
drug sensitivity score [5]: 2.2
drug sensitivity score [6]: 0
drug sensitivity score [7]: 2.1
drug sensitivity score [8]: 4.9
drug sensitivity score [9]: 1.5
drug sensitivity score [10]: 3.8
drug sensitivity score [11]: 0
drug sensitivity score [12]: 3.3

CC(C)[C@H]1C(=O)N[C@@H](CCCNC(=N)N)C(=O)NCC(=O)N[C@@H](CC(=O)O)C(=O)N[C@H](Cc2ccccc2)C(=O)N1C [Cilengitide]
drug sensitivity score [1]: 0
drug sensitivity score [2]: 0
drug sensitivity score [3]: 5.6
drug sensitivity score [4]: 0
drug sensitivity score [5]: 3.5
drug sensitivity score [6]: 1.6
drug sensitivity score [7]: 5.4
drug sensitivity score [8]: 2.5
drug sensitivity score [9]: 2.9
drug sensitivity score [10]: 1.1
drug sensitivity score [11]: 0.2
drug sensitivity score [12]: 17.7

N.N.[Cl][Pt][Cl] [Cisplatin]
drug sensitivity score [1]: 16.5
drug sensitivity score [2]: 11.7
drug sensitivity score [3]: 3.3
drug sensitivity score [4]: 18.3
drug sensitivity score [5]: 16.4
drug sensitivity score [6]: 4.3
drug sensitivity score [7]: 11.2
drug sensitivity score [8]: 4.8
drug sensitivity score [9]: 10.7
drug sensitivity score [10]: 8.8
drug sensitivity score [11]: 5
drug sensitivity score [12]: 15.7

Nc1nc(Cl)nc2c1ncn2[C@H]1C[C@H](O)[C@@H](CO)O1 [Cladribine]
drug sensitivity score [1]: 4.2
drug sensitivity score [2]: 0
drug sensitivity score [3]: 0.1
drug sensitivity score [4]: 0
drug sensitivity score [5]: 0
drug sensitivity score [6]: 3.1
drug sensitivity score [7]: 0
drug sensitivity score [8]: 1.6
drug sensitivity score [9]: 0
drug sensitivity score [10]: 2.1
drug sensitivity score [11]: 9.8
drug sensitivity score [12]: 0.1

Nc1nc(Cl)nc2c1ncn2[C@@H]1O[C@H](CO)[C@@H](O)[C@@H]1F [Clofarabine]
drug sensitivity score [1]: 17.1
drug sensitivity score [2]: 4.7
drug sensitivity score [3]: 7.3
drug sensitivity score [4]: 25
drug sensitivity score [5]: 24.1
drug sensitivity score [6]: 13.5
drug sensitivity score [7]: 3
drug sensitivity score [8]: 11.9
drug sensitivity score [9]: 0
drug sensitivity score [10]: 9.5
drug sensitivity score [11]: 22.4
drug sensitivity score [12]: 4.7

CCN(CC)CCOc1ccc(C(=C(Cl)c2ccccc2)c2ccccc2)cc1 [Clomifene]
drug sensitivity score [1]: 3.2
drug sensitivity score [2]: 2.2
drug sensitivity score [3]: 4.4
drug sensitivity score [4]: 5.8
drug sensitivity score [5]: 4.1
drug sensitivity score [6]: 3.8
drug sensitivity score [7]: 3.9
drug sensitivity score [8]: 6.9
drug sensitivity score [9]: 1.9
drug sensitivity score [10]: 7
drug sensitivity score [11]: 3.1
drug sensitivity score [12]: 3.2

O=C(c1ccc(F)c(F)c1Nc1ccc(I)cc1F)N1CC(O)([C@@H]2CCCCN2)C1 [Cobimetinib]
drug sensitivity score [1]: 8.5
drug sensitivity score [2]: 0
drug sensitivity score [3]: 3.5
drug sensitivity score [4]: 0.9
drug sensitivity score [5]: 3
drug sensitivity score [6]: 4
drug sensitivity score [7]: 4.6
drug sensitivity score [8]: 25.7
drug sensitivity score [9]: 1.4
drug sensitivity score [10]: 8.8
drug sensitivity score [11]: 2.4
drug sensitivity score [12]: 8.9

COc1c(OCCCN2CCOCC2)ccc2c1N=C(NC(=O)c1cnc(N)nc1)N1CCN=C21 [Copanlisib]
drug sensitivity score [1]: 9.9
drug sensitivity score [2]: 3.8
drug sensitivity score [3]: 2.5
drug sensitivity score [4]: 4.8
drug sensitivity score [5]: 6.6
drug sensitivity score [6]: 2.6
drug sensitivity score [7]: 8
drug sensitivity score [8]: 3.5
drug sensitivity score [9]: 5.3
drug sensitivity score [10]: 10.4
drug sensitivity score [11]: 5.7
drug sensitivity score [12]: 6.3

CC1(COc2ccc3c(c2)ncn3-c2ccc3cccc(N4CCC(N)CC4)c3n2)COC1 [Crenolanib]
drug sensitivity score [1]: 10
drug sensitivity score [2]: 5.4
drug sensitivity score [3]: 6.8
drug sensitivity score [4]: 4.8
drug sensitivity score [5]: 2.8
drug sensitivity score [6]: 7.9
drug sensitivity score [7]: 4
drug sensitivity score [8]: 6
drug sensitivity score [9]: 2.9
drug sensitivity score [10]: 4.9
drug sensitivity score [11]: 6.9
drug sensitivity score [12]: 4.4

C[C@@H](Oc1cc(-c2cnn(C3CCNCC3)c2)cnc1N)c1c(Cl)ccc(F)c1Cl [Crizotinib]
drug sensitivity score [1]: 0
drug sensitivity score [2]: 0
drug sensitivity score [3]: 0
drug sensitivity score [4]: 0
drug sensitivity score [5]: 0.1
drug sensitivity score [6]: 0
drug sensitivity score [7]: 0
drug sensitivity score [8]: 0
drug sensitivity score [9]: 0
drug sensitivity score [10]: 0
drug sensitivity score [11]: 0
drug sensitivity score [12]: 0

CC(C)(C)c1nc(-c2cccc(NS(=O)(=O)c3c(F)cccc3F)c2F)c(-c2ccnc(N)n2)s1 [Dabrafenib]
drug sensitivity score [1]: 0
drug sensitivity score [2]: 0
drug sensitivity score [3]: 0
drug sensitivity score [4]: 0
drug sensitivity score [5]: 0
drug sensitivity score [6]: 1.5
drug sensitivity score [7]: 0
drug sensitivity score [8]: 17.9
drug sensitivity score [9]: 0
drug sensitivity score [10]: 0
drug sensitivity score [11]: 0
drug sensitivity score [12]: 0

COc1cc2ncnc(Nc3ccc(F)c(Cl)c3)c2cc1NC(=O)/C=C/CN1CCCCC1 [Dacomitinib]
drug sensitivity score [1]: 8
drug sensitivity score [2]: 0.2
drug sensitivity score [3]: 0.2
drug sensitivity score [4]: 1.1
drug sensitivity score [5]: 0
drug sensitivity score [6]: 0.8
drug sensitivity score [7]: 2.4
drug sensitivity score [8]: 0.1
drug sensitivity score [9]: 1.3
drug sensitivity score [10]: 5
drug sensitivity score [11]: 2.1
drug sensitivity score [12]: 2.6

Cc1c2oc3c(C)ccc(C(=O)N[C@@H]4C(=O)N[C@H](C(C)C)C(=O)N5CCC[C@H]5C(=O)N(C)CC(=O)N(C)[C@@H](C(C)C)C(=O)O[C@@H]4C)c3nc-2c(C(=O)N[C@@H]2C(=O)N[C@H](C(C)C)C(=O)N3CCC[C@H]3C(=O)N(C)CC(=O)N(C)[C@@H](C(C)C)C(=O)O[C@@H]2C)c(N)c1=O [Dactinomycin]
drug sensitivity score [1]: 23.4
drug sensitivity score [2]: 9
drug sensitivity score [3]: 13.9
drug sensitivity score [4]: 34.6
drug sensitivity score [5]: 30.5
drug sensitivity score [6]: 26.5
drug sensitivity score [7]: 27.9
drug sensitivity score [8]: 23.1
drug sensitivity score [9]: 17.5
drug sensitivity score [10]: 20.9
drug sensitivity score [11]: 24.3
drug sensitivity score [12]: 26.5

Cn1c(=O)n(-c2ccc(C(C)(C)C#N)cc2)c2c3cc(-c4cnc5ccccc5c4)ccc3ncc21 [Dactolisib]
drug sensitivity score [1]: 11
drug sensitivity score [2]: 13.4
drug sensitivity score [3]: 3.7
drug sensitivity score [4]: 20.5
drug sensitivity score [5]: 13.9
drug sensitivity score [6]: 13.7
drug sensitivity score [7]: 14.4
drug sensitivity score [8]: 16.7
drug sensitivity score [9]: 15.3
drug sensitivity score [10]: 15
drug sensitivity score [11]: 14.4
drug sensitivity score [12]: 15.8

CO[C@@H](C(=O)N1Cc2[nH]nc(NC(=O)c3ccc(N4CCN(C)CC4)cc3)c2C1)c1ccccc1 [Danusertib]
drug sensitivity score [1]: 23.5
drug sensitivity score [2]: 4.3
drug sensitivity score [3]: 5.6
drug sensitivity score [4]: 7.4
drug sensitivity score [5]: 12.5
drug sensitivity score [6]: 3.1
drug sensitivity score [7]: 11.1
drug sensitivity score [8]: 4.9
drug sensitivity score [9]: 8.7
drug sensitivity score [10]: 7.2
drug sensitivity score [11]: 8.7
drug sensitivity score [12]: 14.7

CCN(CC)CCN(Cc1ccc(-c2ccc(C(F)(F)F)cc2)cc1)C(=O)Cn1c(SCc2ccc(F)cc2)nc(=O)c2c1CCC2 [Darapladib]
drug sensitivity score [1]: 0
drug sensitivity score [2]: 0.2
drug sensitivity score [3]: 2.4
drug sensitivity score [4]: 0
drug sensitivity score [5]: 0
drug sensitivity score [6]: 0.3
drug sensitivity score [7]: 1
drug sensitivity score [8]: 0.6
drug sensitivity score [9]: 0
drug sensitivity score [10]: 0.9
drug sensitivity score [11]: 0
drug sensitivity score [12]: 2

Cc1nc(Nc2ncc(C(=O)Nc3c(C)cccc3Cl)s2)cc(N2CCN(CCO)CC2)n1 [Dasatinib]
drug sensitivity score [1]: 9.9
drug sensitivity score [2]: 0.2
drug sensitivity score [3]: 8.2
drug sensitivity score [4]: 4.6
drug sensitivity score [5]: 6
drug sensitivity score [6]: 3.5
drug sensitivity score [7]: 18.5
drug sensitivity score [8]: 5.5
drug sensitivity score [9]: 4.6
drug sensitivity score [10]: 8
drug sensitivity score [11]: 9.1
drug sensitivity score [12]: 12.1
